The values below are quoted from earlier work in patent publication US20050118235A1, “Dietary non-essential amino acid tyrosine regulates the body weight of animals through regulating the animal appetite or food intake” (priority 2003, published 2005).

The data set has as its system activity anorexia in mice. The conditions noted are these: tyrosine injection, activity anorexia in mice (Avraham et al. 2001).

The structures appear in SMILES notation.

For `N[C@@H](Cc1ccc(O)cc1)C(=O)O` [Tyrosine], the “effect on appetite, cognition and exercise tolerance” value is “improves appetite, cognition, and exercise tolerance”.
